Data taken from patent US9745272B2, “Quinazoline-2,4(1 H,3H)-dione derivatives” (Hydra Biosciences, Inc., priority 2014, dated 2017).

How the values were obtained:
TRPC5 channel [1] = target: T1, TRPC5 channel (Homo sapiens, UniProt Q9UL62); assay: High throughput screening assay: Fluo4 cell-based fluorescence assay of intracellular Ca2+ rise in HEK293/TREx cells inducibly expressing TRPC5; details: Table 2, Ca2+ influx, 14 mM Ca2+
T1 construct: expressed in transfected cells; host or cells: HEK293/TREx (Invitrogen), stably transfected, induced with tetracycline
T1 sequence (Q9UL62 1-973): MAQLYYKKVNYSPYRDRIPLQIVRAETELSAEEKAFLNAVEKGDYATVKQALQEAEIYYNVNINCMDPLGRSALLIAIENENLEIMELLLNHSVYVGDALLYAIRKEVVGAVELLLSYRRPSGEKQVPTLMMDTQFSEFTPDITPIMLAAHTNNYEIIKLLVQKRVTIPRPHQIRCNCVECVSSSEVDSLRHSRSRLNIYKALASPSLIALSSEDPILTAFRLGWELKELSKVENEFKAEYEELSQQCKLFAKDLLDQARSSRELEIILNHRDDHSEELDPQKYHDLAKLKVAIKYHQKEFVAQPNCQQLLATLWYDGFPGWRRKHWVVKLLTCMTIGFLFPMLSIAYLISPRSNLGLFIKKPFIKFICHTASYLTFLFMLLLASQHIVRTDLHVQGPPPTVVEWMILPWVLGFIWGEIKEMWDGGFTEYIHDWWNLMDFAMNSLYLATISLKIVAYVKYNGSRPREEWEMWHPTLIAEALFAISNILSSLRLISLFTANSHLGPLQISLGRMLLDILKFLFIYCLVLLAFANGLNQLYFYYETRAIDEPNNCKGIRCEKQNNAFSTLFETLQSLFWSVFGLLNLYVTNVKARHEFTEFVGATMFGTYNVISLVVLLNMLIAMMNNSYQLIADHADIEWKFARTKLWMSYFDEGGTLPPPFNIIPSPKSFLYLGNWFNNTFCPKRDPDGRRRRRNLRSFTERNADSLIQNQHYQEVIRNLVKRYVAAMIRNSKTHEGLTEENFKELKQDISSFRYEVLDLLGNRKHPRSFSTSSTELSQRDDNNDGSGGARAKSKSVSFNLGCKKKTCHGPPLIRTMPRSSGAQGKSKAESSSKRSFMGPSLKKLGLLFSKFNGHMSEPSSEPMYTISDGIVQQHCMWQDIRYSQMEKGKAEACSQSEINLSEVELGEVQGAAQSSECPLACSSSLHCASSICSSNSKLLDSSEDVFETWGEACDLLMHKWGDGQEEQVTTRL
Excerpt: The assay depended on detection of the rise in intracellular Ca2+ concentration ([Ca2+]i) following channel activation in cells inducibly expressing the TRPC5 channel. Ca2+ rise was quantified with the use of fluorescent Ca2+ indicators that were loaded into cells and thereafter indicated the [Ca2+]i Ca2+ influx followed activation of the TRPC5 channel. Compounds inhibiting the [Ca2+]i rise were considered hits for further investigation.
The commercially available HEK293/TREx line (Invitrogen) was stably transfected with a TRPC5 construct and screened by conventional calcium imaging to find clones with TRPC5 expression following stimulation with 1 μg/ml tetracycline. These cells were maintained in the growth medium recommended by the manufacturer supplemented with 100 μg/ml hygromycin to promote retention of the TRPC5 construct. After growing to near confluency, cells were plated at a density of ˜35,000 cells/well in 384 well CellBind plates (Corning) in the presence of 1 μg/ml tetracycline, and allowed to grow for 20-30 hrs. A nearly confluent monolayer resulted. Cells were then loaded with Ca2+ dye: Fura-2/AM or Fluo4/AM was added to the wells to a final concentration of 4 μM or 0.5 μM, respectively, and incubated for 80 min or 60 min, respectively, at room temperature. Supernatant was then removed from the cells by inverting plates with a sharp flick, and 25 μl Hank's Balanced Salt Solution (HBSS; 0.185 g/l D-glucose, 0.9767 g/l MgS04 (anhydrous), 0.4 g/l KCl, 0.06 g/l KH2PO4 (anhydrous), 0.35 g/l NaHCO3, 8.0 g/l NaCl, and 0.04788 g/l Na2HPO4 (anhydrous); pH 7.4) was then added to each well. Following ˜0.5 hour for recovery from loading, cells were assayed using the Hamamatsu FDSS 6000 system, which permitted illumination alternately at 340 nm and 380 nm for Fura-2 experiments, or at 485 nm for Fluo4 experiments. Frames were acquired at a rate of 0.2 Hz. During the assay, the plates were continuously vortexed, with pipette mixing of wells following addition of each reagent. For the screening assay, 26 μl of a diluted compound stock (at 50 μM) was added to each well for 2 minutes following the collection of a short (4 frame) baseline. 13 μl 62 mM high-Ca2+ Ringer solution (4.17 ml of normal ringer (with 2 mM Ca2+) plus 5.83 ml of isotonic calcium ringer (105 mM Ca2+; in this ringer all sodium has been replaced with calcium)) was then added to each well, achieving a final concentration of 14 mM Ca2+ and 10 μM test compound. Data was collected for ˜3 minutes following addition of high Ca2+ Ringer, where the fluorescent intensity (for Fluo4) and the F340/F380 ratio (for Fura-2) were proportional to the [Ca2+]i Negative controls consisted of HEK293/TREx TRPC5 cells exposed to high Ca2+ solution, but no compound. Positive control conditions consisted of addition of 2-APB, a promiscuous blocker of TRPC5 and other channels, to columns 23 and 24 of the plates, to a final concentration of 200 μM. These controls defined a screening window, and “hits” were defined as those compounds inhibiting the fluorescence response by at least 40%. IC50 values were determined for compounds defined as “hits.” The Fluo4 cell-based fluorescence assay was used to determine the intracellular Ca2+ concentration in the presence of varying drug concentration. Final concentrations of compounds tested were 20 μM, 6.667 μM, 2.222 μM, 0.741 μM, 0.247 μM, 0.082 μM, and 0.027 μM. Compounds were tested in triplicate at all concentrations. Standard software was used to fit IC50 curves. […]

TRPC5 channel [2] = target: T1, TRPC5 channel; assay: Whole-cell patch clamp experiments, TRPC5 current activated by LaCl3 in TRPC5-expressing HEK293 TREx cells; format: cell-based; details: Table 3, block of TRPC5 current in continued presence of LaCl3, IC50 estimated
Excerpt: Patch clamp experiments permit the detection of currents through the TRPC5 channel in the cell line described above. In normal whole-cell patch clamp recordings, a glass electrode is brought into contact with a single cell and a high-resistance (gigaohm) seal is established with the cell membrane. The membrane is then ruptured to achieve the whole-cell configuration, permitting control of the voltage of the cell membrane and measurement of currents flowing across the membrane using the amplifier attached to the electrode and resulting in the replacement of cytoplasm with the pipette solution. A perfusion system permits control of the extracellular solution, including the addition of blockers and activators of the current. The current can be activated by including 1.4 μM free Ca^2+ in the pipette (intracellular) solution, and 80 μM LaCl3 in the extracellular solution.
TRPC5 cells were induced 20-48 hours, removed from growth plates, and replated at low density (to attain good single-cell physical separation) on glass coverslips for measurement. In some cases, cells were grown in low density overnight on glass coverslips. Patch clamp recordings were made in the whole-cell mode with a holding potential of −40 mV. Every 5 seconds, a voltage ramp was applied from −120 to +100 mV, 400 ms in duration. Currents elicited were quantified at −80 mV and +80 mV. The internal solution consisted of 140 mM cesium aspartate, 10 mM HEDTA, 2 mM CaCl2, 2.27 mM MgCl2 and 10 mM HEPES, pH 7.2, with 1,400 nM calculated free Ca^2+. The external solution consisted of 150 mM NaCl, 4.5 mM KCl, 1 mM MgCl2, 2 mM CaCl2, 10 mM HEPES, 10 mM glucose, 1 mM EGTA, pH 7.4. Upon addition of LaCl3, TRPC5 current was induced only in TRPC5-expressing cells and not in parental HEK293 TREx cells. Removal of the LaCl3 stimulus causes most of the current to go away. Potential blockers were tested for ability to block both inward and outward currents in the continued presence of LaCl3.
IC50 of a compound of Formula (I) was estimated by testing the compound at 5 μM and 500 nM. […] IC50 for a compound of Formula (I) between 500 nM and 5 μM was similarly estimated.

IC50 (TRPC5 channel [1]) [nM]	IC50 (TRPC5 channel [2]) [nM]	SMILES
395	2.1	Cn1c(=O)n(CCCO)c(=O)c2c(Cc3ccccc3)c(Oc3cccc(Cl)c3)ccc21 [Compound 3, 5-benzyl-6-(3-chlorophenoxy)-3-(3-hydroxypropyl)-1-methylquinazoline-2,4(1H,3H)-dione]
1.71	2	CCCOc1ccc2c(c1Cc1ccc(F)cc1)c(=O)n(CCCO)c(=O)n2C [Compound 8, 5-(4-fluorobenzyl)-3-(3-hydroxypropyl)-1-methyl-6-propoxyquinazoline-2,4(1H,3H)-dione]
31.2		Cn1c(=O)n(CCCO)c(=O)c2c(Cc3ccccc3)c(-c3cccc(OC(F)(F)F)c3)ccc21 [Compound 13, 5-benzyl-3-(3-hydroxypropyl)-1-methyl-6-(3-(trifluoromethoxy)phenyl)quinazoline-2,4(1H,3H)-dione]
61	1.77	Cn1c(=O)n(CCCO)c(=O)c2c(Cc3ccc(F)cc3)c(Oc3cccc(OC(F)(F)F)c3)ccc21 [Compound 6, 5-(4-fluorobenzyl)-3-(3-hydroxypropyl)-1-methyl-6-(3-(trifluoromethoxy)phenoxy)quinazoline-2,4(1H,3H)-dione]
	1.52	Cn1c(=O)n(CCCO)c(=O)c2c(Cc3ccc(Cl)cc3)c(Oc3cccc(OC(F)(F)F)c3)ccc21 [Compound 4, 5-(4-chlorobenzyl)-3-(3-hydroxypropyl)-1-methyl-6-(3-(trifluoromethoxy)phenoxy)quinazoline-2,4(1H,3H)-dione]
	4.2	CCOc1ccc2c(c1Cc1ccc(Cl)cc1)c(=O)n(CCCO)c(=O)n2C [Compound 11, 5-(4-chlorobenzyl)-6-ethoxy-3-(3-hydroxypropyl)-1-methylquinazoline-2,4(1H,3H)-dione]
	4.3	CCCOc1ccc2c(c1Cc1ccc(Cl)cc1)c(=O)n(CCCO)c(=O)n2C [Compound 10, 5-(4-chlorobenzyl)-3-(3-hydroxypropyl)-1-methyl-6-propoxyquinazoline-2,4(1H,3H)-dione]
27		COc1ccc2c(c1Cc1ccccc1)c(=O)n(CCCO)c(=O)n2C [Compound 2]
